Test system: common mosquito (Culex pipiens pallens)
Test: Test Example 2: knock down test, forced contact with treated glass petri dish
Type: in vivo
Conditions: 5 minutes after release, ten female adults, 3 min contact
Description: Acetone-diluted solutions were prepared so that predetermined dosage of the Guanidine Compound and the ester compound B on glass plates indicated in Table 1 would be applied. The acetone-diluted solutions (0.5 ml) were treated on the underside of glass petri dishes with a diameter of 7 cm uniformly and air-dried. Ten female adults of common mosquito (Culex pipiens pallens) were collected by means of a pocket aspirator and placed into the petri dish, then contacted compulsorily with the treated underside of glass petri dishes by covering with a lucid plate made of polyvinyl chloride.
Three minutes after covering, said common mosquitoes were released in nyron cage (size: 16.5 cm×15.5 cm×22 cm). At a given period of time after releasing, the number of knocked down insects was counted and a knock down rate was calculated.

Row | Structure (SMILES) | Knock down rate (%) after 5 minutes (ester compound B alone 0.000125 mg/plate) [%] | Knock down rate (%) after 5 minutes (ester compound B alone 0.00025 mg/plate) [%] | Knock down rate (%) after 5 minutes (Guanidine Compound alone 0.000125 mg/plate) [%] | Knock down rate (%) after 5 minutes (Guanidine Compound alone 0.00025 mg/plate) [%] | Knock down rate (%) after 5 minutes (Guanidine Compound alone 0.0005 mg/plate) [%] | Knock down rate (%) after 5 minutes (Guanidine Compound alone 0.00125 mg/plate) [%]
1 | C/C=C\[C@@H]1[C@@H](C(=O)OCc2c(F)c(F)c(COC)c(F)c2F)C1(C)C (relative stereo) [reference 4, 2,3,5,6-tetrafluoro-4-methoxymethylbenzyl=(1R)-trans-3-(1-propenyl(Z))-2,2-dimethylcyclopropanecarboxylate] | 10 | 20 |  |  |  | 
2 | CN/C(=N\[N+](=O)[O-])NCc1cnc(Cl)s1 [reference 1, (E)-1-(2-chloro-1,3-thiazol-5-ylmethyl)-3-methyl-2-nitroguanidine] |  |  | 10 | 10 | 10 | 20

Source: patent US20130345266A1, “PEST CONTROL COMPOSITION AND PEST CONTROL METHOD” (SUMITOMO CHEMICAL COMPANY, LIMITED, priority 2011, published 2013)
